Experimental data reported in PubChem BioAssay AID248 (DTP/NCI, 2004).
Several values for one entry are separate records, joined by “and”; a condition that tells them apart may be missing. Identical values can stand only once. Toxic doses and inconclusive results are not listed. Cut-off read from the data, not from the text of the source: active = T/C of 150% or more; inactive = T/C below 125%.

Test system: L1210 leukemia ip in BDF1 mice, survival T/C
Assay: NCI In Vivo Anticancer Drug Screen. Data for tumor model L1210 Leukemia (intraperitoneal) in B6D2F1 (BDF1) mice
Details: endpoint: mean survival time, higher = longer survival
Outline: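 Transplantable tumor model; survival measured in treated vs vehicle control mice. Value = treated/control.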

[1] = dose: 100.0 mg/kg/injection, schedule: Q01DX001 (ip), vehicle: saline
[2] = dose: 100.0 mg/kg/injection, schedule: Q04DX003 (ip), vehicle: saline with Tween-80
[3] = dose: 200.0 mg/kg/injection, schedule: Q04DX003 (ip), vehicle: saline with Tween-80
[4] = dose: 400.0 mg/kg/injection, schedule: Q04DX003 (ip), vehicle: saline with Tween-80
[5] = dose: 100.0 mg/kg/injection, schedule: Q01DX009 (ip), vehicle: Klucel (hydroxypropylcellulose) (HPC)
[6] = dose: 200.0 mg/kg/injection, schedule: Q01DX009 (ip), vehicle: Klucel (hydroxypropylcellulose) (HPC)
[7] = dose: 400.0 mg/kg/injection, schedule: Q01DX009 (ip), vehicle: Klucel (hydroxypropylcellulose) (HPC)

Measured: T/C

O=C1c2ccccc2-c2cc(Br)c(N=C(NO)C(F)(F)F)cc21
inactive: dose: 100.0 mg/kg/injection, schedule: Q01DX001 (ip), vehicle: carboxymethylcellulose (CMC) 115 % of control | dose: 200.0 mg/kg/injection, schedule: Q01DX001 (ip), vehicle: carboxymethylcellulose (CMC) 105 % of control | dose: 400.0 mg/kg/injection, schedule: Q01DX001 (ip), vehicle: carboxymethylcellulose (CMC) 108 % of control

c1ccc(CCCC2CCCC2)cc1
inactive: dose: 75.0 mg/kg/injection, schedule: Q01DX001 (ip), vehicle: saline 94 % of control | dose: 75.0 mg/kg/injection, schedule: Q01DX009 (ip), vehicle: saline 106 % of control | dose: 150.0 mg/kg/injection, schedule: Q01DX001 (ip), vehicle: saline 96 % of control | dose: 150.0 mg/kg/injection, schedule: Q01DX009 (ip), vehicle: saline 108 % of control | dose: 300.0 mg/kg/injection, schedule: Q01DX001 (ip), vehicle: saline 97 % of control | dose: 300.0 mg/kg/injection, schedule: Q01DX009 (ip), vehicle: saline 106 % of control

CCOC(=O)c1cnc(=O)[nH]c1Nc1ccccc1Br
inactive: dose: 100.0 mg/kg/injection, schedule: Q04DX003 (ip), vehicle: gum acacia 95 % of control | dose: 200.0 mg/kg/injection, schedule: Q04DX003 (ip), vehicle: gum acacia 90 % of control | dose: 400.0 mg/kg/injection, schedule: Q04DX003 (ip), vehicle: gum acacia 95 % of control

NC(=O)c1cc(O)c(Br)c(O)c1
inactive: dose: 100.0 mg/kg/injection, schedule: Q01DX009 (ip), vehicle: other 86 % of control | dose: 100.0 mg/kg/injection, schedule: Q04DX003 (ip), vehicle: saline 98 % of control | dose: 200.0 mg/kg/injection, schedule: Q01DX009 (ip), vehicle: other 100 % of control | dose: 200.0 mg/kg/injection, schedule: Q04DX003 (ip), vehicle: saline 109 % of control | dose: 400.0 mg/kg/injection, schedule: Q01DX009 (ip), vehicle: other 93 % of control | dose: 400.0 mg/kg/injection, schedule: Q04DX003 (ip), vehicle: saline 98 % of control

NC(N)=N/N=C/c1cccc2ccccc12
inactive: dose: 3.8 mg/kg/injection, schedule: Q01DX Z (ip), vehicle: other 102 % of control | dose: 6.25 mg/kg/injection, schedule: Q01DX009 (ip), vehicle: saline 95 % of control | dose: 6.25 mg/kg/injection, schedule: Q04DX003 (ip), vehicle: Klucel (hydroxypropylcellulose) (HPC) 104 % of control | dose: 7.5 mg/kg/injection, schedule: Q01DX Z (ip), vehicle: other 97 % of control | dose: 12.5 mg/kg/injection, schedule: Q01DX009 (ip), vehicle: saline 98 % of control | dose: 12.5 mg/kg/injection, schedule: Q04DX003 (ip), vehicle: Klucel (hydroxypropylcellulose) (HPC) 100 % of control | dose: 15.0 mg/kg/injection, schedule: Q01DX Z (ip), vehicle: other 105 % of control | dose: 25.0 mg/kg/injection, schedule: Q01DX009 (ip), vehicle: saline 88 % of control | dose: 25.0 mg/kg/injection, schedule: Q04DX003 (ip), vehicle: Klucel (hydroxypropylcellulose) (HPC) 104 % of control | dose: 30.0 mg/kg/injection, schedule: Q01DX Z (ip), vehicle: other 94 % of control

CC(=O)Oc1ccc2c(c1)C(=O)C(Br)C1C2CCC2(C)C(OC(C)=O)CCC12 (centres undefined)
inactive: dose: 30.0 mg/kg/injection, schedule: Q01DX015 (sc), vehicle: steriod suspending solution 96 % of control | dose: 60.0 mg/kg/injection, schedule: Q01DX015 (sc), vehicle: steriod suspending solution 97 % of control | dose: 100.0 mg/kg/injection, schedule: Q01DX001 (sc), vehicle: steriod suspending solution 116 % of control | dose: 120.0 mg/kg/injection, schedule: Q01DX015 (sc), vehicle: steriod suspending solution 97 % of control | dose: 200.0 mg/kg/injection, schedule: Q01DX001 (sc), vehicle: steriod suspending solution 104 % of control | dose: 240.0 mg/kg/injection, schedule: Q01DX015 (sc), vehicle: steriod suspending solution 100 % of control | dose: 400.0 mg/kg/injection, schedule: Q01DX001 (sc), vehicle: steriod suspending solution 96 % of control

Cn1nc(-c2ccc([N+](=O)[O-])o2)nc1N
inactive: dose: 50.0 mg/kg/injection, schedule: Q01DX001 (ip), vehicle: saline 98 % of control | [1] 96 % of control | dose: 200.0 mg/kg/injection, schedule: Q01DX001 (ip), vehicle: saline 98 % of control | dose: 400.0 mg/kg/injection, schedule: Q01DX001 (ip), vehicle: saline 104 % of control

CCCCCN1C(=O)NC(=O)C(Cl)C1=O (centres undefined)
inactive: [1] 89 % of control

C[n+]1c(-c2ccccc2)c2cc(N)ccc2c2ccccc21
inactive: dose: 0.2 mg/kg/injection, schedule: Q01DX Z (ip), vehicle: methylcellulose (MC) 108 % of control | dose: 0.3 mg/kg/injection, schedule: Q01DX Z (ip), vehicle: methylcellulose (MC) 113 % of control | dose: 0.5 mg/kg/injection, schedule: Q01DX Z (ip), vehicle: methylcellulose (MC) 102 % of control and 114 % of control | dose: 0.75 mg/kg/injection, schedule: Q01DX Z (ip), vehicle: methylcellulose (MC) 111 % of control | dose: 1.0 mg/kg/injection, schedule: Q01DX Z (ip), vehicle: methylcellulose (MC) 107 % of control and 120 % of control | dose: 1.5 mg/kg/injection, schedule: Q01DX Z (ip), vehicle: methylcellulose (MC) 104 % of control | dose: 1.5 mg/kg/injection, schedule: Q01DX Z (ip), vehicle: saline 111 % of control | dose: 2.0 mg/kg/injection, schedule: Q01DX Z (ip), vehicle: carboxymethylcellulose (CMC) 106 % of control | dose: 2.0 mg/kg/injection, schedule: Q01DX Z (ip), vehicle: methylcellulose (MC) 110 % of control and 113 % of control | dose: 3.0 mg/kg/injection, schedule: Q01DX Z (ip), vehicle: carboxymethylcellulose (CMC) 112 % of control | dose: 3.0 mg/kg/injection, schedule: Q01DX Z (ip), vehicle: methylcellulose (MC) 117 % of control | dose: 3.0 mg/kg/injection, schedule: Q01DX Z (ip), vehicle: saline 117 % of control | dose: 4.0 mg/kg/injection, schedule: Q01DX Z (ip), vehicle: methylcellulose (MC) 121 % of control | dose: 4.4 mg/kg/injection, schedule: Q01DX Z (ip), vehicle: carboxymethylcellulose (CMC) 110 % of control | dose: 6.6 mg/kg/injection, schedule: Q01DX Z (ip), vehicle: carboxymethylcellulose (CMC) 120 % of control | dose: 8.0 mg/kg/injection, schedule: Q01DX Z (ip), vehicle: methylcellulose (MC) 121 % of control and 122 % of control | dose: 10.0 mg/kg/injection, schedule: Q01DX001 (ip), vehicle: saline 100 % of control | dose: 20.0 mg/kg/injection, schedule: Q01DX001 (ip), vehicle: saline 117 % of control | dose: 24.0 mg/kg/injection, schedule: Q01DX Z (ip), vehicle: saline 112 % of control | dose: 40.0 mg/kg/injection, schedule: Q01DX001 (ip), vehicle: saline 100 % of control

C=C(C)COc1c(CCC)cc(C)cc1NC(C)=O
inactive: [2] 106 % of control | [3] 97 % of control | [4] 104 % of control

Cc1nn(C2CC(OC(=O)c3ccc([N+](=O)[O-])cc3)C(OC(=O)c3ccc([N+](=O)[O-])cc3)C(COC(=O)c3ccc([N+](=O)[O-])cc3)O2)c(=O)[nH]c1=O (centres undefined)
inactive: dose: 100.0 mg/kg/injection, schedule: Q01DX005 (ip), vehicle: saline 100 % of control | dose: 200.0 mg/kg/injection, schedule: Q01DX005 (ip), vehicle: saline 96 % of control

O=C(Nc1cccc(Cl)c1)NS(=O)(=O)c1ccccc1
inactive: [5] 97 % of control | [6] 105 % of control | [7] 106 % of control

O=C(Nc1ccccc1C(F)(F)F)N(Cc1ccccc1)c1ccccc1
inactive: [5] 93 % of control | [6] 92 % of control | [7] 98 % of control

Oc1ccccc1N=CC1CCCCC1
inactive: [2] 87 % of control | [3] 88 % of control | [4] 92 % of control
